Reference: PubChem BioAssay (NCI)
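How tested: cells in 96-well plates exposed to compound for 48 hours at five concentrations. GI50 = concentration required for 50% inhibition of growth. TGI: total growth inhibition.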

Assays:
Assay in all cases: NCI anticancer screen, dose series, 48 h
ACHN renal = tested on: ACHN renal
HCT-15 colon = tested on: HCT-15 colon
HOP-62 NSCLC = tested on: HOP-62 NSCLC
NCI-H226 lung = tested on: NCI-H226 lung
NCI-H23 lung = tested on: NCI-H23 lung
RPMI-8226 leukemia = tested on: RPMI-8226 leukemia
SF-539 CNS = tested on: SF-539 CNS
UO-31 renal = tested on: UO-31 renal
LOX IMVI melanoma = tested on: LOX IMVI melanoma
TK-10 renal = tested on: TK-10 renal

| SMILES | TGI (ACHN renal) | TGI (HCT-15 colon) | TGI (HOP-62 NSCLC) | TGI (NCI-H226 lung) | TGI (NCI-H23 lung) | TGI (RPMI-8226 leukemia) | TGI (SF-539 CNS) | TGI (UO-31 renal) | GI50 (ACHN renal) | GI50 (HCT-15 colon) | GI50 (HOP-62 NSCLC) | GI50 (LOX IMVI melanoma) | TGI (LOX IMVI melanoma) | GI50 (NCI-H226 lung) | GI50 (NCI-H23 lung) | GI50 (RPMI-8226 leukemia) | GI50 (SF-539 CNS) | GI50 (TK-10 renal) | TGI (TK-10 renal) | GI50 (UO-31 renal) |
| --- | --- | --- | --- | --- | --- | --- | --- | --- | --- | --- | --- | --- | --- | --- | --- | --- | --- | --- | --- | --- |
| CC(=O)NC(CCCCNC(=O)N(CCCl)N=O)C(=O)NCc1ccccc1 (configuration not stated) | > 100 µM | > 100 µM | > 100 µM | > 100 µM | > 100 µM | > 100 µM | > 100 µM | > 100 µM | – | – | – | – | – | – | – | – | – | – | – | – |
| COc1ccc(-c2nn(-c3cccc(NC(=O)Nc4ccc(Cl)c(C(F)(F)F)c4)c3)cc2-c2ccncc2)cc1Cl | 13.8 µM | 19.2 µM | 17.3 µM | 8.22 µM | 14.3 µM | 5.29 µM | 5.11 µM | 13.3 µM | 2.32 µM | 2.37 µM | 3.37 µM | 2.95 µM | 10.6 µM | 2.53 µM | 3.01 µM | 1.43 µM | 2.04 µM | 4.8 µM | 92.2 µM | 2.12 µM |
| Cc1oc2c(C)c(O)c3c(c2c1C1(C)OCCO1)C(=O)C=C(Cl)C3=O | > 100 µM | > 100 µM | > 100 µM | > 100 µM | > 100 µM | > 100 µM | > 100 µM | > 100 µM | – | – | – | – | > 100 µM | – | – | – | – | – | > 100 µM | – |
| CN1CCC[C@@H]1CCO[C@](C)(c1ccccc1)c1ccc(Cl)cc1 | 19 µM | 16 µM | 23.1 µM | 25.3 µM | 24.3 µM | – | 23.7 µM | 16.3 µM | 6.31 µM | 4.4 µM | 10.1 µM | 3.02 µM | 14.2 µM | 10.5 µM | 10.5 µM | – | 9.94 µM | 10.7 µM | 23.3 µM | 2.83 µM |
| C[C@@H](CO)OCOCc1ccccc1 | – | > 100 µM | > 100 µM | – | > 100 µM | > 100 µM | > 100 µM | > 100 µM | – | – | – | – | > 100 µM | – | – | – | – | – | – | – |
| COc1cc(/C=C2\[C@H]3c4c(c(OC)c(C)c(OC)c4OC)C[C@@H](C(=O)N2Cc2ccccc2)N3C(=O)OC(C)C)c(OC)c(C)c1OC | > 100 µM | – | > 100 µM | 56.2 µM | > 100 µM | > 100 µM | > 100 µM | > 100 µM | – | – | – | – | > 100 µM | – | – | – | – | – | > 100 µM | – |
| O=C1N=C(c2ccccc2)OC1C(=O)c1ccccc1 (configuration not stated) | > 100 µM | > 100 µM | > 100 µM | > 100 µM | > 100 µM | > 100 µM | – | > 100 µM | – | – | – | – | > 100 µM | – | – | – | – | – | > 100 µM | – |
| O=C(O)c1ccc2c(c1Nc1ccccc1)C(=O)c1ccccc1C2=O | > 100 µM | > 100 µM | > 100 µM | > 100 µM | > 100 µM | – | > 100 µM | > 100 µM | 39.7 µM | 72.8 µM | 35.6 µM | 28.9 µM | > 100 µM | 24.2 µM | 19 µM | – | 56.2 µM | 98.5 µM | > 100 µM | 11.8 µM |
| O=C1OCc2c1cc(F)cc2[N+](=O)[O-] | > 100 µM | > 100 µM | > 100 µM | > 100 µM | > 100 µM | > 100 µM | > 100 µM | > 100 µM | > 100 µM | > 100 µM | > 100 µM | > 100 µM | > 100 µM | > 100 µM | > 100 µM | > 100 µM | > 100 µM | – | – | > 100 µM |
